Source: patent publication US20220260565A1, “METHODS OF TREATING AND DIAGNOSING INFLAMMATORY BOWEL DISEASE” (priority 2018, published 2022)

What was measured:
bacterial microbiota = assay: Bacterial microbiota in stool of antifungal-treated mice (16S rDNA sequencing); format: in vivo; conditions: 3 weeks in drinking water, stool DNA
Procedure: (§1) FIG. 24A-24D Antifungal treatment affects bacterial and fungal microbiota in mice. Mice were treated or not for 3 weeks with fluconazole or amphotericin B in their drinking water, DNA was isolated from stool, and fungal and bacterial communities were assessed by sequencing ITS1 and 16S rDNA regions respectively. […] D) Examples of bacteria (families) regulated upon antifungal treatment. * p<0.05; ** p<0.01; *** p<0.001; LDA scores from LEfSe analysis.
(§2) We will investigate the impact of antifungal therapy on the mucosa-associated microbiota in patients by examining samples collected before and after anti-fungal therapy. We will investigate the association between the mycobiota detected by high-throughput ITS (fungal) and 16S (bacterial) rDNA sequencing as well as targeted quantitative PCR in colonic washes, biopsies, and fecal samples. In preliminary studies in mice, we have observed that oral treatment with antifungal drugs (we have tried several) alters the fungal microbiota in fecal samples, which is, of course, not surprising (FIGS. 24A&C), but it also affects the bacterial microbiota (FIGS. 24B&D). The interrelationship between bacterial and fungal microbiota and the susceptibility of these communities to manipulation by antifungal drugs in mice is being further studied in other funded work. […]

fungal microbiota = assay: Fungal microbiota in stool of antifungal-treated mice (ITS1 sequencing); format: in vivo; conditions: 3 weeks in drinking water, stool DNA
Procedure: as §1, §2

[1] = test system: acute colitis induced by DSS in wild type and Clec7a−/− mice; assay: DSS colitis in wild type and Dectin-1-deficient (Clec7a-/-) mice treated with fluconazole; format: in vivo; conditions: DSS in drinking water
Description: DSS colitis in Dectin-1-deficient mice: The inventors examined whether defective immune recognition of fungi could have an impact on colitis and looked at the effects of inducing acute colitis in mice lacking Dectin-1 (Clec7a−/−). The inventors co-housed wild type and Clec7a−/− mice for two weeks before inducing acute colitis by administration of 3% DSS in the drinking water. […] Consistent with the histology, the inventors detected augmented production of IFN-γ and IL-17 in mesenteric lymph nodes (MLNs) and colons from Clec7a−/− mice (FIG. 12D, 12E). Furthermore, in colons of Clec7a−/− mice the inventors detected increased message for TNF-α, IL-23p19 and IL-17a, cytokines previously associated with intestinal inflammation (Not shown).

Malassezia = Malassezia levels in stool of mice after oral fluconazole (rDNA sequencing); format: in vivo; conditions: oral fluconazole for 1 week
Procedure: FIG. 22 depicts Efficacy of azole drug on colonic Malassezia in mice. Mice were treated with oral fluconazole for 1 week, and Malassezia levels were measured in the stool by rDNA sequencing.

Malassezia spp. = conditions: cited from earlier work
[2] = in vivo; cited from earlier work
[3] = from package insert; cited from earlier work

Compound | effect on bacterial microbiota (16S sequencing, LEfSe) (bacterial microbiota) | effect on fungal microbiota (ITS1 sequencing) (fungal microbiota) | effect on colitis ([1]; Dectin-1 knockout (Clec7a−/−) animals) | effect on colitis ([1]; wild type animals) | Malassezia levels in the stool (Malassezia) | MIC against most Malassezia spp. (Malassezia spp.) | concentration in feces [2] | first pass effect [2] | common adverse events in clinical trials [3]
C[C@@H]1[C@H](O)[C@@H](C)/C=C/C=C/C=C/C=C/C=C/C=C/C=C/[C@H](O[C@@H]2O[C@H](C)[C@@H](O)[C@H](N)[C@@H]2O)C[C@@H]2O[C@](O)(C[C@@H](O)C[C@@H](O)[C@H](O)CC[C@@H](O)C[C@@H](O)CC(=O)O[C@H]1C)C[C@H](O)[C@H]2C(=O)O [amphotericin B] | changes in bacterial microbiota | alter the fungal community |  |  |  |  |  |  | 
OC(Cn1cncn1)(Cn1cncn1)c1ccc(F)cc1F [fluconazole] | changes in bacterial microbiota | alter the fungal community | abrogated colitis | little or no effect | depletion of Malassezia from the stool |  |  |  | 
CC[C@@H]([C@H](C)O)n1ncn(-c2ccc(N3CCN(c4ccc(OC[C@@H]5CO[C@@](Cn6cncn6)(c6ccc(F)cc6F)C5)cc4)CC3)cc2)c1=O [posaconazole] |  |  |  |  |  | low | high | low | diarrhea, dyspepsia, nausea, fever, headache, coughing, and hypokalemia
